This is an account of results in patent US9617256B2 (priority 2007, dated 2017).

Assay [1] has as its system APAE006 in the presence of 8 micrograms per milliliter of polymyxin B nonapeptide. Type of assay: cell-based, P. aeruginosa. Conditions: APAE006 with 8 micrograms per milliliter polymyxin B nonapeptide. Here is the method: (§1) Bacterial isolates were cultivated from −70° C. frozen stocks by overnight passages at 35° C. in ambient air on Mueller-Hinton agar (Beckton Dickinson, Franklin Lakes, N.J.). Clinical isolates tested were obtained from various geographically diverse hospitals in the US and abroad (Focus Diagnostics, Herndon, Va. and JMI, North Liberty, Iowa). Quality control strains were from the American Type Culture Collection (ATCC; Rockville, Md.). Additional primary panel strains were generated using standard molecular biology techniques.
(§2) Minimum Inhibitory Concentrations (MICs) were determined by the broth microdilution method in accordance with the Clinical and Laboratory Standards Institute (CLSI) guidelines. In brief, organism suspensions were adjusted to a 0.5 McFarland standard to yield a final inoculum between 3×10^5 and 7×10^5 colony-forming units (CFU)/mL. Drug dilutions and inocula were made in sterile, cation adjusted Mueller-Hinton Broth (Beckton Dickinson). An inoculum volume of 100 μL was added to wells containing 100 μL of broth with 2-fold serial dilutions of drug. All inoculated microdilution trays were incubated in ambient air at 35° C. for 18-24 hours. […] Performance of the assay was monitored by the use of laboratory quality-control strains and levofloxacin, a compound with a defined MIC spectrum, in accordance with CLSI guidelines.
(§3) *AECO001 is ATCC25922, AECO063 is ATCC25922 bearing an acrAB mutation, APAE001 is ATCC27853, APAE006 is a strain of P. aeruginosa in which all efflux pumps are inactivated, APAE006+PMBN indicates MICs with the indicated strain in the presence of 8 micrograms per milliliter of polymyxin B nonapeptide, AABA1060 is a clinical isolate of Acinetobacter baumannii, ASAU001 is a laboratory strain of S. aureus (ATCC29213).

In the next assay the test system is AECO001 (ATCC25922). The assay can be described thus: MIC broth microdilution, AECO001. Type of assay: cell-based, E. coli. The note with it: Escherichia coli. The protocol: as §1, §2, §3
For orientation: Dilution methods test growth across graded concentrations, often in twofold steps.

Assay [2] has as its system APAE006 (strain of P. aeruginosa in which all efflux pumps are inactivated). Put plainly: microbe, parasite or virus in culture. Type of assay: cell-based. The note with it: Pseudomonas aeruginosa, read-out: MIC APAE006, APAE006, all efflux pumps inactivated. Here is the method:
as §1, §2, §3

The test system of assay [3] is ASAU001 (laboratory strain of S. aureus, ATCC29213). Put plainly: MIC broth microdilution, ASAU001. Type of assay: cell-based. Conditions: Staphylococcus aureus, ATCC29213, read-out: MIC ASAU001. Here is the method: as §1, §2, §3
For a further assay, the system named is APAE001 (ATCC27853). The assay can be described thus: MIC broth microdilution, APAE001. Type of assay: cell-based, P. aeruginosa. The note with it: Pseudomonas aeruginosa, ATCC27853, read-out: MIC APAE001, APAE001 (ATCC27853). Here is the method: as §1, §2, §3
Assay [4] relates to AABA1060 (clinical isolate of Acinetobacter baumannii). The assay can be described thus: MIC broth microdilution, AABA1060. Type of assay: cell-based. The note with it: Acinetobacter baumannii, read-out: MIC AABA1060. The protocol:
as §1, §2, §3

The subject of assay [5] is AECO063 (ATCC25922 bearing an acrAB mutation). The assay can be described thus: microbe, parasite or virus in culture. Type of assay: cell-based, E. coli. The note with it: Escherichia coli, ATCC25922, read-out: MIC AECO063. The protocol: as §1, §2, §3
[6] abbreviates: ATCC25922, read-out: MIC AECO001.
[7] abbreviates: ATCC25922, read-out: MIC AECO001 HSA AGP.

Converted amounts (≈) assume the structure as drawn. Where two headings read alike, the source gives them in different places. Bounds are passed on as bounds.

`CC(C)CC#CC#Cc1ccc(C(=O)N[C@H](C(=O)NO)C(C)(C)O)cc1` [Example 91-19]: the “MIC APAE006 + PMBN” value in assay [1] is “A (MIC's of 2.0 μg/mL or less = A)”. Moreover, the MIC was under 2 mg/L with AECO001 (ATCC25922) (setting [6]); under 2 mg/L in the assay with AECO001 (ATCC25922) (setting [7]); under 2 mg/L in assay [2]; 16 to 64 mg/L (≈ 44.9 to 180 µM) in assay [3]; 2 to 16 mg/L (≈ 5.61 to 44.9 µM) in the assay on APAE001 (ATCC27853); 2 to 16 mg/L (≈ 5.61 to 44.9 µM) in assay [4]. For the same compound, in assay [5], the MIC was under 2 mg/L.

For `CC(C)(N)[C@H](NC(=O)c1ccc(C#CC#Cc2ccc(O)cc2)cc1)C(=O)NO` [Example 83-1, N—((S)-2-Amino-1-hydroxycarbamoyl-2-methyl-propyl)-4-[4-(4-hydroxy-phenyl)-buta-1,3-diynyl]-benzamide], the “MIC APAE006 + PMBN” value in assay [1] was “A (MIC's of 2.0 μg/mL or less = A)”. Also, the MIC is under 2 mg/L in the assay with AECO001 (ATCC25922) (setting [6]); 2 to 16 mg/L (≈ 5.11 to 40.9 µM) in the assay with AECO001 (ATCC25922) (setting [7]); under 2 mg/L in assay [2]; 16 to 64 mg/L (≈ 40.9 to 164 µM) in assay [3]; under 2 mg/L with APAE001 (ATCC27853); under 2 mg/L in assay [4]. Moreover, the MIC in assay [5] was under 2 mg/L.

As to `C[C@@H](N)[C@H](NC(=O)c1ccc(C#CC#CC2CCNCC2)cc1)C(=O)NO` [Example 137-22], the “MIC APAE006 + PMBN” value in assay [1] is given as “B (MIC's of greater than 2.0 μg/mL to 16.0 μg/mL = B)”. The MIC in the assay with AECO001 (ATCC25922) (setting [6]) lay in the range of 16 to 64 mg/L (≈ 43.4 to 174 µM); in the assay with AECO001 (ATCC25922) (setting [7]), 16 to 64 mg/L (≈ 43.4 to 174 µM); in assay [2], 2 to 16 mg/L (≈ 5.43 to 43.4 µM); in assay [3], 16 to 64 mg/L (≈ 43.4 to 174 µM); in the assay on APAE001 (ATCC27853), 2 to 16 mg/L (≈ 5.43 to 43.4 µM); in assay [4] it was 16 to 64 mg/L (≈ 43.4 to 174 µM). The MIC in assay [5] lay in the range of 16 to 64 mg/L (≈ 43.4 to 174 µM).

Turning to `CC(C)(O)[C@H](NC(=O)c1ccc(C#CC#Cc2ccsc2)cc1)C(=O)NO` [Example 88-14], in assay [1], the “MIC APAE006 + PMBN” value is recorded as “A (MIC's of 2.0 μg/mL or less = A)”. Moreover, the MIC with AECO001 (ATCC25922) (setting [6]) is under 2 mg/L; in the assay with AECO001 (ATCC25922) (setting [7]) it was 2 to 16 mg/L (≈ 5.23 to 41.8 µM); in assay [2], under 2 mg/L; in assay [3] it was 16 to 64 mg/L (≈ 41.8 to 167 µM); in the assay with APAE001 (ATCC27853), under 2 mg/L; in assay [4], under 2 mg/L. Also, in assay [5], the MIC was under 2 mg/L.

On to `C[C@@H](N)[C@H](NC(=O)c1ccc(C#CC#Cc2cnc(N)s2)cc1)C(=O)NO` [Example 88-17], for which the “MIC APAE006 + PMBN” value in assay [1] was “A (MIC's of 2.0 μg/mL or less = A)”. The MIC with AECO001 (ATCC25922) (setting [6]) was under 2 mg/L; with AECO001 (ATCC25922) (setting [7]), 16 to 64 mg/L (≈ 41.7 to 167 µM); in assay [2], under 2 mg/L; in assay [3] it was 16 to 64 mg/L (≈ 41.7 to 167 µM); with APAE001 (ATCC27853) it was under 2 mg/L; in assay [4], 2 to 16 mg/L (≈ 5.22 to 41.7 µM). Moreover, the MIC in assay [5] is under 2 mg/L.

Consider `CC(C)(O)[C@H](NC(=O)c1ccc(C#C/C=C/c2cccnc2)cc1)C(=O)NO` [Example 106-5], for which the “MIC APAE006 + PMBN” value in assay [1] was “A (MIC's of 2.0 μg/mL or less = A)”. Also, the MIC in the assay on AECO001 (ATCC25922) (setting [6]) is under 2 mg/L; with AECO001 (ATCC25922) (setting [7]), 2 to 16 mg/L (≈ 5.27 to 42.2 µM); in assay [2], under 2 mg/L; in assay [3], 16 to 64 mg/L (≈ 42.2 to 169 µM); with APAE001 (ATCC27853), 2 to 16 mg/L (≈ 5.27 to 42.2 µM); in assay [4], 2 to 16 mg/L (≈ 5.27 to 42.2 µM). For the same compound, the MIC in assay [5] is under 2 mg/L.

For `C[C@@H](O)[C@H](NC(=O)c1ccc(C#CC#Cc2ccc(F)cc2)cc1)C(=O)NO` [Example 82-23], the “MIC APAE006 + PMBN” value in assay [1] was “A (MIC's of 2.0 μg/mL or less = A)”. The MIC was under 2 mg/L with AECO001 (ATCC25922) (setting [6]); 16 to 64 mg/L (≈ 42.1 to 168 µM) in the assay with AECO001 (ATCC25922) (setting [7]); under 2 mg/L in assay [2]; 16 to 64 mg/L (≈ 42.1 to 168 µM) in assay [3]; 16 to 64 mg/L (≈ 42.1 to 168 µM) with APAE001 (ATCC27853); 16 to 64 mg/L (≈ 42.1 to 168 µM) in assay [4]. For the same compound, the MIC in assay [5] is under 2 mg/L.

For the compound `C[C@@H](N)[C@H](NC(=O)c1ccc(C#Cc2ccc(CNCC(F)(F)F)cc2)cc1)C(=O)NO` [Example 137-16], the “MIC APAE006 + PMBN” value in assay [1] is given as “A (MIC's of 2.0 μg/mL or less = A)”. Further, the MIC is under 2 mg/L in the assay on AECO001 (ATCC25922) (setting [6]); 2 to 16 mg/L (≈ 4.46 to 35.7 µM) with AECO001 (ATCC25922) (setting [7]); under 2 mg/L in assay [2]; 16 to 64 mg/L (≈ 35.7 to 143 µM) in assay [3]; 2 to 16 mg/L (≈ 4.46 to 35.7 µM) in the assay on APAE001 (ATCC27853); 2 to 16 mg/L (≈ 4.46 to 35.7 µM) in assay [4]. In addition, the MIC in assay [5] was under 2 mg/L.
